Values of other authors in US20140082761A1, “METHODS TO INCREASE PLANT PRODUCTIVITY” (PLANT SENSORY SYSTEMS, LLC, priority 2011, published 2014).

Assays:
[1] = target: T1, sulfinoalanine decarboxylase (SAD) (Rattus norvegicus, UniProt Q64611); conditions: substrate of SAD (decarboxylation); literature values
T1 construct: in vitro assays on SAD isolated from rat; host or cells: enzyme isolated from rat
T1 sequence (Q64611 1-493): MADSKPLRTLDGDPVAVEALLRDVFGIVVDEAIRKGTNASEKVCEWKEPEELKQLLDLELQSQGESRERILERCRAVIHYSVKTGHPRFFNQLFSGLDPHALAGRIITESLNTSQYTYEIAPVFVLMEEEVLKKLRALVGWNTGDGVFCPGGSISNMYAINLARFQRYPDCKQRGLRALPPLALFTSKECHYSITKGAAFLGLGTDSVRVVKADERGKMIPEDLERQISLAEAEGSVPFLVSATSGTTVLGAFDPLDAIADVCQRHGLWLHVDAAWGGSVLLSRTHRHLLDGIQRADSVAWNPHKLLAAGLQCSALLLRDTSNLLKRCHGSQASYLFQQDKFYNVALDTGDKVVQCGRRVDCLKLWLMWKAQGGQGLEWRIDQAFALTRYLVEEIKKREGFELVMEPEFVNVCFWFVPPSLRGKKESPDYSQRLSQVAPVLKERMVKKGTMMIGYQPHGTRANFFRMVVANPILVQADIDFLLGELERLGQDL

NCCS(=O)(=O)O [taurine, 2-aminoethane sulfonic acid]
effect of exogenous application on plant growth and production (plants (crop)): increase crop harvest, yield, and biomass, increase seedling growth and increase photosynthetic capacity of isolated plant cells and chloroplasts

N[C@@H](CCC(=O)O)C(=O)O [glutamate]
Km [1]: 2.9 mM

N[C@@H](CC(=O)O)C(=O)O [aspartate]
Km [1]: 11 mM
